Reference: US20170074857A1, “MEDICATION ADHERENCE MONITORING DEVICE” (UNIVERSITY OF FLORIDA RESEARCH FOUNDATION, INC., priority 2014, published 2017)
Like-named read-outs stand apart in the source and are kept apart here. Blank lines part the entries; values can stand above or below the compound they belong to.

Assays:
[1] = test system: human carboxylesterases and tissue esterases; details: metabolized by human carboxyesterases and tissue esterases; cited from earlier work
[2] = orally; FDA Q3C guidance; cited from earlier work
[3] = cited from earlier work
[4] = cited from earlier work; remark: listed apart in the source
[5] = Example 4a: noncompartmental pharmacokinetics of exhaled 2-butanone and 2-pentanone by mGC; assay type: in vivo, human; details: human, in vivo
Description: Test Materials. […] 2-butanol was purchased from Penta Manufacturing Company (Fairfield, N.J.). 2-pentanol and L-carvone were purchased from Sigma-Aldrich (St. Louis, Mo.). […] 2-pentanone was also used as a taggant, but we hypothesized that its inherent volatility would allow exhalation without need for metabolism. L-carvone tastes like spearmint and was used as a flavor mask. All capsules were filled on the day of the experiment.
Subject Enrollment and Protocol. This protocol (20100140) was approved by the Western Institutional Review Board (Olympia, Wash.). Healthy subjects (n=5) aged >18 years of age and of either sex were recruited. Informed, written consent was obtained from all enrolled subjects. The study consisted of a single experimental limb with six replicates per subject. Therefore, for five subjects with six replicated experiments, a total of 30 studies were performed. Subjects were free to eat ad lib prior to participation in the study. At commencement of the experiments, subjects provided a baseline breath sample (designated time 0 min) into the mGC for analysis as described subsequently. Then, subjects orally consumed the previously detailed capsule with 177 mL (6 ounces) of water. Following ingestion, we observed the breath concentration-time relationships of 2-butanone and 2-pentanone by collecting single-breath samples at times 5, 10, 15, 20, 30, 45, and 60 min. After 60 min, the experiment was concluded. After at least one day's respite, subjects returned for replicate experiments on five additional occasions.
2-Butanone and 2-Pentanone Measurement in Human Breath by mGC. Breath specimens were analyzed “real-time” to measure the concentrations of 2-butanone and 2-pentanone using the mGC (Xhale, Inc. Gainesville, Fla.) as previously described. In brief, a mouthpiece (FST®, Intoximeters, Inc., St. Louis, Mo.) was attached to the inlet of the mGC. A 15 mL side-stream sample was aspirated during a single exhalation over 5 s through this inlet port to a room temperature concentrator trap containing 4 mg of Tenax TA (Sigma-Aldrich). The trap temperature was then increased to 130° C. and the volatile components transferred to a 5 m by 0.53 mm internal diameter, metal clad, BAC-1 capillary column (Restek Corp, Bellefonte, Pa.) operated at 55° C. The effluent from the column then flowed to the metal oxide detectors. Separation of the markers from other volatile organic compounds present in the sample (i.e., acetone and isoprene) occurred in approximately 2 min. Data were tabulated and graphically presented over time to determine the concentrations of 2-butanone and 2-pentanone in a given breath specimen. Data are reported in parts-per-billion (ppb) based on molar fractions to account for differing ambient atmospheric pressures and temperature.
Pharmacokinetic Analysis. Analyte breath concentrations reported as ppb were converted to ng/mL by multiplying each concentration by the molecular weight of the respective molecule to allow proper functioning of conventional PK software for noncompartmental analysis (WinNonlin 5.2, Pharsight Corporation, St. Louis, Mo.). Estimates were generated for the following PK parameters (abbreviation, unit): first-order elimination rate constant (Lambda Z, min-1), half-life of elimination (Half-life, min), maximal drug concentration (CMAX, μg/mL), time at maximal drug concentration (TMAX, min), area under concentration versus time curve from zero to the last time point (AUC0-LAST, min*μg/mL), area under concentration versus time curve from zero to infinity (AUC0-∞, min*μg/mL), percentage of area under concentration versus time curve from zero to infinity, which is extrapolated from AUC0-t (% AUC Extrap) and the mean residence time (MRT, min). The area under concentration versus time curve (AUC) was calculated using the linear trapezoidal rule. All values are reported separately for each subject as mean±standard deviation following conversion from ng/mL to ppb. […]

[6] = Example 30: sodium alkyl carbonates, stability and breath ketones after ingestion (FIG. 83)
Method: Isopropanol (1000 mL) was taken lab reactor and added Na metal (6 g). The reaction mixture was heated to 80° C. for 3 h (sodium metal dissolved, clear solution was observed). The reaction mixture was cooled to 0 to 5° C. and purged CO2 (thick suspension was observed after 30 min). Aliquot were drawn after 30 min, concentrated and the solid obtained was analyzed by 1H NMR. The reaction mixture was allowed to stir for additional 30 min. The complete reaction mixture was rinsed with isopropanol (100 mL) and transferred to an R.B flask, concentrated under vacuum to get white solid. The solid obtained after concentration was dried under vacuum at 40° C. at 1 h to get 26 g of white solid.
Sodium isopropoxy carbonate is formed according to this method. The MAC from isopropanol seems to decompose at 60° C. MAC on treatment with water decomposes and white solid was isolated.
The solution was cooled to between 0 and 5° C. and purged with CO2 for 45 minutes. The resulting suspension was concentrated under high vacuum at 40-50° C. to obtain 15 g of white solid. ^1H-NMR: δ ppm (in D2O)=0.89 (triplet, 3H), 1.17 (doublet, 3H), 1.50 (multiplet, 2H), 4.38 (multiplet, 1H) ^13C-NMR: δ ppm (in D2O)=9.48, 19.59, 28.97, 73.96 and 159.61. IR: ν (cm^−1)=1651, 1458, 1369 and 1289 (indicative of an alkyl carboxylate).
Synthesis 2: Six grams of Na metal was dissolved in 100 mL of anhydrous isopropanol at 80° C. […]

[7] = not given; remark: listed apart in the source
[8] = Example 26: breath d6-acetone after 100 mg d8-isopropanol per diem for 5 days (LTQ-LCMS); details: in vivo; for Half-life: human, 100 mg
Method: 100 mg aliquots (125 μL) of neat d8-isopropanol were ingested at 24 h intervals for a period of 5 days. Each aliquot was administered in a size 0 LiCap along with ˜200 mL of water.
Each breath sample consisted of a single full breath exhaled directly into the modified ESI source.
Following the ingestion of each aliquot, breath samples were taken every 2 min for the first 30 min following ingestion, every 5 min from 30-60 min after ingestion and every 10 min from 60-120 min. Additional breath samples were collected at ˜9 h and 20 h after ingestion. After the final dose, breath samples were taken once every 24 h for the next 3 days (total study time=8 days).

clinical = details: human, exhaled breath, oral, 100 mg
[9] = in vivo
Description: FIG. 79. […] The experimental data was curve fit (parameter estimates±SE) to Equation 1 using a non-linear, least squares (Marquardt-Levenburg) algorithm (SigmaPlot 11, Systat Software, Inc., San Jose, Calif.). […] Note: the logarithmic scale is used on the y axis.
These times are indicated by the short vertical lines on the time axis. […] The y axis is plotted on the log 10 scale.
As it relates to the SMART® Adherence System, the concentration rise (rapid absorption of AEM and conversion to EDIM) and decay of the EDIM with time in breath following oral administration of the AEM is well described by a 1 compartmental (monoexponential) pharmacokinetic (PK) model, reflecting absorption and elimination, which can be described by the following equation (dertived from Miller's Anesthesia, 6th Edition, p 81, 2005, Ed: Ronald D. Miller, Elsevier Churchill Livingstone, Philadelphia, Pa.):
In this example, an initial 1st AEM dose pharmacokinetic (PK) analysis over a period of 0 to a maximum of 24 hours is carried out. […] Note: To ensure an accurate EDIM t1/2a ideally the last time point measured in this 1st dose PK analysis includes the EDIM trough concentration (i.e., the concentration at the time point just prior to the 2nd dose). The AEM could either consist of ordinary or non-ordinary cold isotopes, which generate ordinary and non-ordinary cold isotopic labeled EDIMs. The EDIM levels in breath are measured using the appropriate SMART® device type as disclosed herein.

SMILES: CCCCOC(=O)c1ccc(O)cc1 [Butyl paraben]
- Breath Metabolites [1]: Butanol + POHBA

SMILES: C[S+](C)[O-] [DMSO, dimethyl sulfoxide]
- permissible daily exposure (PDE) [2]: 50 mg/day
- elimination half life ([3]; humans): 12 to 15 h

SMILES: CCOC(=O)c1ccc(O)cc1 [Ethyl paraben]
- Breath Metabolites [1]: Ethanol + POHBA

SMILES: CCCC(C)O (centres unmarked) [Formulation 2-pentanol, 2-pentanol]
- LD50 Oral Rat ([4]; oral): 1470 mg/kg

- Half-life ([5]; both sexes, Half-life): 0.395 h
- MRT last ([5]; both sexes, MRT0-Last): 0.42 h
- MRT last ([5]; both sexes, MRT0-last): 0.423 h
- TMAX ([5]; both sexes, TMAX): 0.247 h
- TThresh range between replicates ([5]; both): 5 to 7 min
- AUC0-8 [5]: 58214 min · ppb
- observed CMAX range [5]: 536-2,072 ppb
SMILES: CCCC(C)=O [Formulation 2-pentanone, 2-pentanone]

SMILES: CC(C)OC(=O)O [MAC from isopropanol, Sodium Isopropyl Carbonate]
- temperature at which it seems to decompose [6]: 60 °C

SMILES: COC(=O)c1ccc(O)cc1 [Methyl paraben]
- Breath Metabolites [1]: Methanol + para- hydroxybenzoic acid (POHBA)

SMILES: CC(C)=O [acetone]
- permissible daily exposure (PDE) [2]: 210 mg/day
- average elimination half life in humans ([3]; Jones, J Anal Toxicol 2000): 22 h
- metabolic/elimination half life in humans ([3]; Jones, J Anal Toxicol 2000): 17 to 27 h
- time for trough concentrations to reach steady state (100 mg IPA daily): 1 to 2 days
- breath concentration (100 mg IPA for 5 successive days, Type 1 (mGC) device): 2700 to 3000 ppb
- maximum breath concentration (100 mg IPA oral): 2800 ppb
- rise of breath concentration over baseline (100 mg IPA oral, 15 and 30 min): greater than 6 ×
- CMAX assuming dose proportionality ([7]; IPA 138 mg orally per day (PDE)): 4131 ppb
- Half-life ([8]; elimination half life in breath, Example 26 / FIG. 74, after d8-IPA): ~6.4 h
- Half-life ([8]; half-life of acetone derived from IPA, exhaled breath): ~6.5 h
- Half-life (clinical): < 10 h

SMILES: [2H]C([2H])([2H])C(=O)C([2H])([2H])[2H] [d6-acetone]
- TMAX ([7]; 100 mg d8-IPA): 3 h
- maximum breath concentration (CMAX) ([7]; 100 mg d8-IPA, assuming breath acetone of 582 ppb): 2,993 ppb
- TMAX ([9]; human): 1.46 h
- steady state CMAX ([9]; human): 1819 ppb
- CMAX, 1st dose ([9]; human, 100 mg): 1561 ppb
- FLost [9]: 0.859
- accumulation factor (AF) [9]: 1.165
- steady state CTrough [9]: 267 ppb
- Average k [8]: Average k = −0.1079
- elimination half life in breath [8]: 6.4 h
- exhaled breath peak height [8]: 62000 peak height
- time after a dose up to which deviations from steady state are detectable [8]: up to 65 hours
- t½ [8]: t½ ≃ 6.4 h
- maximum peak response remaining after 24 h ([8]; 24 h): 6-10%

SMILES: [2H]OC([2H])(C([2H])([2H])[2H])C([2H])([2H])[2H] [d8-IPA, d8-isopropanol]
- OrbiTrap peak height ([7]; single 100 mg dose): 360,000 peak height
- OrbiTrap response relative to background endogenous breath acetone ([7]; single 100 mg dose): approximately 5.14 ×

SMILES: CCOC(=O)C(C)C [ethyl isobutyrate]
- LD50 Oral Rat ([4]; oral): 13000 mg/kg

SMILES: CCCCCCOC(C)=O [hexyl acetate]
- LD50 Oral Rat ([4]; oral): 30147 mg/kg

SMILES: CC(=O)OCCC(C)C [isoaryl (isopentyl) acetate]
- LD50 Oral Rat ([4]; oral): 16600 mg/kg

SMILES: CCC(=O)OC [methyl propionate]
- LD50 Oral Rat ([4]; oral): 5000 mg/kg

SMILES: COC(=O)C(C)C [methylisobutyrate]
- LD50 Oral Rat ([4]; oral): 5000 mg/kg

SMILES: CCCOC(C)=O [propyl acetate]
- LD50 Oral Rat ([4]; in vivo, po): 9370 mg/kg
